According to US20210395313A1, “PEPTIDE PAC1 ANTAGONISTS” (AMGEN INC., priority 2017, published 2021):
Where a SMILES comes first, the peptide text is derived from it. Bridges are numbered along the chain shown (N, C = ends). Where no end group is shown, it is not given here. [ ]: non-standard residue; d: D form. SeMet = C[Se]CC[C@H](N)C(=O)O

Experiments:
human PAC1 receptor = biological target: T1, human PAC1 receptor (Homo sapiens, UniProt P41586); assay: LANCE Ultra cAMP accumulation antagonist assay in SHSY-5Y cells; assay type: cell-based;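 also: inhibition of cAMP accumulation evoked by PAC1 agonist at its EC80 in SHSY-5Y cells endogenously expressing receptor, 30 min preincubation then 15 min agonist, TR-FRET readout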
T1 construct: SHSY-5Y (human neuroblastoma cell line) and RG-2 (rat glioma cell line) cells endogenously express human and rat PAC1 receptors, respectively; endogenous in cells; host or cells: SHSY-5Y human neuroblastoma cells
T1 sequence (P41586 21-468): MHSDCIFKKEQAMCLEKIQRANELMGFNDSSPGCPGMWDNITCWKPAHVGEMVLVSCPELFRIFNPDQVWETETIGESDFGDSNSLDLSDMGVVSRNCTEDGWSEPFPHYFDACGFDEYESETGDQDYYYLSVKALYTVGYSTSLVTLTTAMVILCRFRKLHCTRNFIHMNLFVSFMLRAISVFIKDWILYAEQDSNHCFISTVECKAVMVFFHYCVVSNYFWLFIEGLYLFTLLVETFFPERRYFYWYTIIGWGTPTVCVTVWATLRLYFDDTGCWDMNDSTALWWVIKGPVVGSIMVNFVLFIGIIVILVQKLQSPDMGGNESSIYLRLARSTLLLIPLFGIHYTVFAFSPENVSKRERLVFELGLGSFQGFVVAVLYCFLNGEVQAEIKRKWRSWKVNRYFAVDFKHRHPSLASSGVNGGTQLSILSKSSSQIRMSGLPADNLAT

rat PAC1 receptor = biological target: T2, rat PAC1 receptor (Rattus norvegicus, UniProt P32215); assay: LANCE Ultra cAMP accumulation antagonist assay in RG-2 cells; assay type: cell-based;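 also: RG-2 rat glioma cells endogenously expressing PAC1, test peptide preincubated 30 min, then PAC1 agonist added at its EC80 for 15 min, cAMP accumulation read by LANCE Ultra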
T2 construct: SHSY-5Y (human neuroblastoma cell line) and RG-2 (rat glioma cell line) cells endogenously express human and rat PAC1 receptors, respectively; endogenous in cells; host or cells: RG-2 rat glioma cells
T2 sequence (P32215 20-523): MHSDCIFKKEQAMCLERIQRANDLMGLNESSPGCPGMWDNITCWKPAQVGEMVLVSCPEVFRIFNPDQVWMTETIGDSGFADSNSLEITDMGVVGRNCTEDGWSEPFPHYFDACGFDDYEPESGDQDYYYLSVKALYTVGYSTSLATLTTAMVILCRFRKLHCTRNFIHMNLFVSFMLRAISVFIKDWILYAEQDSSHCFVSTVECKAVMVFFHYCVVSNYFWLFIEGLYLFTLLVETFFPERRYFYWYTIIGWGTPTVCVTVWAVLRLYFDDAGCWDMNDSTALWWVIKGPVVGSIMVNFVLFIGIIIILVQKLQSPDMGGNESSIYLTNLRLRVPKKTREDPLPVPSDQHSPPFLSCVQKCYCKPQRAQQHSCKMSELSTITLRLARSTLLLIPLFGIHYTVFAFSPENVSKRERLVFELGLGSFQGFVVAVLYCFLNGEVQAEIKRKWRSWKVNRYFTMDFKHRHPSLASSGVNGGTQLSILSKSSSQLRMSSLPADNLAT

Row | Compound | IC50 (human PAC1 receptor) [nM] | IC50 (rat PAC1 receptor) [nM]
1 | CC[C@H](C)[C@H](NC(=O)[C@H](C)NC(=O)[C@H](CCCCN)NC(=O)[C@H](CCCNC(=N)N)NC(=O)[C@H](Cc1ccccc1)NC(=O)[C@H](CCC(N)=O)NC(=O)[C@@H]1CSSC[C@H](N)C(=O)N[C@@H](CC(=O)O)C(=O)N[C@@H](C)C(=O)N[C@@H]([C@@H](C)O)C(=O)N1)C(=O)N[C@@H](CC(=O)O)C(=O)N[C@@H](CC(=O)O)C(=O)N[C@H]1CSSC[C@@H](C(=O)N[C@@H](CCSC)C(=O)N[C@@H](CCCCN)C(=O)N[C@@H](CCC(N)=O)C(=O)N[C@@H](CCCCN)C(=O)N[C@@H](CCCCN)C(=O)N[C@@H](CCCCN)C(=O)N[C@@H](CCC(=O)O)C(=O)N[C@@H](Cc2ccccc2)C(=O)N[C@@H](CCCCN)C(=O)N[C@@H](C)C(=O)NCC(=O)N[C@@H](Cc2ccc(O)cc2)C(=O)O)NC(=O)[C@H](C)NC(=O)[C@H](CCCCN)NC(=O)[C@H](Cc2ccccc2)NC(=O)[C@H](C(C)C)NC(=O)[C@H](CO)NC(=O)[C@H](CO)NC(=O)[C@H](Cc2c[nH]cn2)NC(=O)[C@H](Cc2c[nH]cn2)NC(=O)[C@H](C)NC(=O)[C@H](CCC(N)=O)NC(=O)[C@H](CCCCN)NC(=O)[C@H](C)NC1=O [compound 29] (H-CDATCQFRKAIDDCAKQAHHSSVFKACMKQKKKEFKAGY-OH; disulfide 1-5, 14-27) | 0.01 to 1 | 0.01 to 1
2 | CDATCQFRKAIDDCARQAHHSNVPGSVFKACIKQKKKEWKAGH (disulfide 1-5, 14-31) [compound 9] | 0.01 to 1 | 0.01 to 1
3 | CDATCHFRKAIDDCQKQAHHSNVPGSVFKACMKQHKKRWRAG-NH2 (disulfide 1-5, 14-31) [compound 124] | 0.01 to 1 | 0.01 to 1
4 | CDATCQFRKAIDDCYYYAMHSNVPGSVWKACMKQKKKEFKAG-NH2 (disulfide 1-5, 14-31) [compound 150] | 0.01 to 1 | 0.01 to 1
5 | CDATCQFRKAIDDCVRQAHHSNVPGSVFKACMKQKKKEWKAN (disulfide 1-5, 14-31) [compound 87] | 0.01 to 1 | 0.01 to 1
6 | CDATCQFRKAIDDCDRQAHHSNVPGSVFKACMKQKKKEFKAG-NH2 (disulfide 1-5, 14-31) [compound 168] | 0.01 to 1 | 0.01 to 1
7 | CC[C@H](C)[C@H](NC(=O)[C@H](C)NC(=O)[C@H](CCCCN)NC(=O)[C@H](CCCNC(=N)N)NC(=O)[C@H](Cc1ccccc1)NC(=O)[C@H](CCC(N)=O)NC(=O)[C@@H]1CSSC[C@H](N)C(=O)N[C@@H](CC(=O)O)C(=O)N[C@@H](C)C(=O)N[C@@H]([C@@H](C)O)C(=O)N1)C(=O)N[C@@H](CC(=O)O)C(=O)N[C@@H](CC(=O)O)C(=O)N[C@H]1CSSC[C@@H](C(=O)N[C@@H](CCSC)C(=O)N[C@@H](CCCCN)C(=O)N[C@@H](CCC(N)=O)C(=O)N[C@@H](CCCCN)C(=O)N[C@@H](CCCCN)C(=O)N[C@@H](CCCCN)C(=O)N[C@@H](CCC(=O)O)C(=O)N[C@@H](Cc2ccccc2)C(=O)N[C@@H](CCCCN)C(N)=O)NC(=O)[C@H](CCC(=O)O)NC(=O)[C@H](CCCCN)NC(=O)[C@H](Cc2ccccc2)NC(=O)[C@H](C(C)C)NC(=O)[C@H](CO)NC(=O)[C@H](CC(N)=O)NC(=O)[C@@H]2CCCN2C(=O)[C@H](C(C)C)NC(=O)[C@H](CC(N)=O)NC(=O)[C@H](CO)NC(=O)[C@H](Cc2c[nH]cn2)NC(=O)[C@H](Cc2c[nH]cn2)NC(=O)[C@H](C)NC(=O)[C@H](CCC(N)=O)NC(=O)[C@H](CCCCN)NC(=O)[C@H](CCC(N)=O)NC1=O [compound 311] (H-CDATCQFRKAIDDCQKQAHHSNVPNSVFKECMKQKKKEFK-NH2; disulfide 1-5, 14-31) | > 100 | 1 to 100
8 | CDATCQFRKAIDDCWIVAWHANVPGSVFKACMKQKKKEFKAG-NH2 (disulfide 1-5, 14-31) [compound 129] | 0.01 to 1 | 0.01 to 1
9 | CDATCQFRKAIDDCARQAHHSNVPGSVFKAC[SeMet]KQKKKEWKAGH (disulfide 1-5, 14-31) [compound 7] | 0.01 to 1 | 0.01 to 1
10 | CDATCQFRKAIDDCQKQAHHSNVPGSVFKACLVQKKKEFKAG-NH2 (disulfide 1-5, 14-31) [compound 101] | 1 to 100 | 1 to 100
